Here are results for 6 compounds from ChEMBL document CHEMBL1127412, “PRO_LIGAND: an approach to de novo molecular design. 2. Design of novel molecules from molecular field analysis (MFA) models and pharmacophores” (J Med Chem, 1994).

In general, IC50 refers to the concentration that inhibits the measured activity by half. Low readings indicate greater potency, high ones weaker potency.

Each structure is given as a SMILES string. Non-standard residues stand in square brackets, D forms with d. Residues, ends and D or L forms follow the SMILES beside them. Nle = CCCC[C@H](N)C(=O)O

For this assay, the target named is Angiotensin-converting enzyme (Homo sapiens, UniProt P12821). Nature of the assay: Inhibition against ACE.
For the compound `CC[C@H](C)[C@H](N)C(=O)N[C@@H](Cc1ccc(O)cc1)C(=O)O` (H-Ile-Tyr-OH), the half-inhibitory concentration (IC50) is 3.7 µM.
On to `C[C@H](NC(=O)[C@@H](N)Cc1ccccc1)C(=O)N1CCC[C@H]1C(=O)O` (H-Phe-Ala-Pro-OH), for which 4.2 µM corresponded to half-maximal inhibition (IC50). The IC50 values of the last two compounds are within 1.5-fold of each other.
In the case of `C[C@H](NC(=O)[C@@H](N)CCCNC(=N)N)C(=O)N1CCC[C@H]1C(=O)O` (H-Arg-Ala-Pro-OH), the concentration for half-maximal inhibition (IC50) was found to be 16 µM.
`CC(C)C[C@H](N)C(=O)N[C@@H](C)C(=O)N1CCC[C@H]1C(=O)O` (H-Leu-Ala-Pro-OH): the IC50 came out at 2.3 µM.
The result for `CCCC[C@H](N)C(=O)N[C@@H](C)C(=O)N1CCC[C@H]1C(=O)O` (H-[Nle]-Ala-Pro-OH) reads 0.7 µM.
`N[C@@H](Cc1ccccc1)C(=O)N1CCC[C@H]1C(=O)N1CCC[C@H]1C(=O)O` (H-Phe-Pro-Pro-OH) gave an IC50 of 78 µM.
